What all share (assay): ≥ marks a high value that may be exact or a test limit, other limits are often not marked, values filed in µg/mL are converted to µM
Assay [1] concerns Alcaligenes faecalis MTCC 1937.
The test system of assay [2] is Acinetobacter baumannii MTCC 9829.
Assay [3] relates to Corynebacterium glutamicum MTCC 2679.
Assay [4] concerns Salmonella enterica MTCC 9844.
Assay [5] relates to Pluralibacter gergoviae MTCC 3826.
Assay [6] deals with Citrobacter freundii MTCC 1658.
Assay [7] relates to Vibrio cholerae MTCC 3904.
Assay [8] has as its system Alkalihalobacillus alcalophilus MTCC 860.
For assay [9], the system named is Enterococcus faecalis MTCC 439.
The test system of assay [10] is Stenotrophomonas maltophilia MTCC 1890.
The test system of assay [11] is Bordetella bronchiseptica MTCC 6837.
For assay [12], the system named is Pseudomonas aeruginosa MTCC 3542.
Assay [13] concerns Shigella boydii MTCC 11947.
Assay [14] concerns Escherichia coli K12 MG1655.
The test system of assay [15] is Citrobacter koseri MTCC 1657.
The subject of assay [16] is Proteus mirabilis MTCC 3158.
Assay [17] deals with Klebsiella oxytoca MTCC 2275.
The test system of assay [18] is Klebsiella aerogenes MTCC 111.
In assay [19] the test system is Staphylococcus haemolyticus MTCC 3383.
The subject of assay [20] is Shigella flexneri MTCC 1457.
In assay [21] the test system is Proteus vulgaris MTCC 1771.
The subject of assay [22] is Salmonella enterica subsp. enterica serovar Typhimurium ATCC 14028.
The test system of assay [23] is Staphylococcus aureus MTCC 3160.
Assay [24] has as its system Klebsiella pneumoniae MTCC 7407.
In assay [25] the test system is Haemophilus influenzae MTCC 621.
The subject of assay [26] is Staphylococcus aureus NCTC 8325.
Assay [27] relates to Candida albicans ATCC 90028.
Assay [28] relates to Batrachochytrium dendrobatidis.
Assay [29] concerns Escherichia coli ATCC 25922.
The test system of assay [30] is Pseudomonas aeruginosa PAO1.
For assay [31], the system named is Pseudomonas aeruginosa.
Assay [32] concerns Salmonella enterica subsp. enterica serovar Typhimurium C77-31.
In assay [33] the test system is Klebsiella pneumoniae.
Assay [34] deals with Escherichia coli UB1005.
The test system of assay [35] is Escherichia coli K99.
The test system of assay [36] is Pseudomonas aeruginosa ATCC 27853.
For assay [37], the system named is Escherichia coli.
The subject of assay [38] is Pseudomonas aeruginosa CICC 21625.
Assay [39] deals with Salmonella enterica subsp. enterica serovar Pullorum C79-13.
For assay [40], the system named is Escherichia coli K88.
Assay [41] has as its system Pseudomonas aeruginosa CICC 21630.
In assay [42] the test system is Acinetobacter baumannii.

Converted amounts (≈) assume the structure as drawn. “And” between values parts separate entries of the source, which are not always exact repeats. Equal entries are not always repeated.

This is an account of results in DBAASP.

As for `CC(C)C[C@H](NC(=O)[C@H](CCCCN)NC(=O)CNC(=O)[C@H](C)NC(=O)[C@H](CCCN=C(N)N)NC(=O)[C@H](CO)NC(=O)[C@@H](N)CCC(=O)O)C(=O)N[C@@H](C)C(=O)N[C@@H](C)C(=O)N[C@@H](CCCCN)C(=O)N[C@@H](C)C(=O)N[C@@H](C)C(=O)N[C@@H](Cc1ccccc1)C(=O)N[C@@H](CCCCN)C(=O)N[C@@H](C)C(=O)N[C@@H](C)C(=O)N[C@@H](CCCCN)C(=O)N[C@@H](CCCN=C(N)N)C(=O)O` [ESRAGKLAAKAAFKAAKR], the MIC in [1], in assay [2], in assay [3], in assay [4], in assay [5] and in assay [6] was ≥ 68.3 µM each time. The MIC in assay [7], in assay [8], in assay [9], in assay [10], in assay [11] and in [12] was ≥ 68.3 µM each time. The MIC in assay [13], in assay [14], in assay [15], in assay [16], in assay [17] and in [18] was ≥ 68.3 µM each time. The MIC in [19] is ≥ 68.3 µM; in assay [20], ≥ 68.3 µM; in assay [21], ≥ 68.3 µM; in [22] it was > 68.3 µM; in assay [23] it was ≥ 68.3 µM; in assay [24], ≥ 68.3 µM. Besides, the MIC in assay [25] was ≥ 68.3 µM.

As for `CC[C@H](C)[C@@H]1NC(=O)[C@H](CCCCN)NC(=O)[C@@H](NC(=O)[C@H](CCCCN)NC(=O)[C@H](CC(C)C)NC(=O)[C@H](CCCCN)NC(=O)[C@H](CC(=O)O)NC(=O)[C@H](CC(C)C)NC(=O)[C@H](CCSC)NC(=O)[C@H](Cc2cnc[nH]2)NC(=O)CNC(=O)[C@H](C)NC(=O)[C@H](CC(C)C)NC(=O)[C@H](CC(N)=O)NC(=O)[C@H](CCCCN)NC(=O)[C@H](C)NC(=O)[C@@H](NC(=O)[C@H](CC(N)=O)NC(=O)[C@H](CCCCN)NC(=O)[C@@H](NC(=O)[C@@H](NC(=O)[C@H](CC(=O)O)NC(=O)[C@H](CCSC)NC(=O)[C@@H](N)CC(C)C)[C@@H](C)O)C(C)C)C(C)C)CSSC[C@@H](C(=O)O)NC(=O)CNC(=O)[C@H]([C@@H](C)O)NC1=O` [LMDTVKNVAKNLAGHMLDKLKCKITGC], the MIC in assay [26] was ≥ 50 µM; in [27], ≥ 67 µM; in assay [28] it was ≥ 100 µM; in assay [29], 13 µM (≈ 38.3 µg/mL).

As to `CC[C@H](C)[C@H](NC(=O)[C@H](CC(C)C)NC(=O)[C@@H]1CCCN1C(=O)[C@H](CC(C)C)NC(=O)[C@@H](N)Cc1ccccc1)C(=O)NCC(=O)N[C@@H](CCCCN)C(=O)N[C@H](C(=O)N[C@@H](CC(C)C)C(=O)NCC(=O)N[C@H](C(=O)N[C@H](C(=O)N[C@@H](CC(C)C)C(N)=O)[C@@H](C)CC)[C@@H](C)O)[C@@H](C)CC` [FLPLIGKILGTIL], the MIC was 5 µM (≈ 6.98 µg/mL) in [26]; ≥ 150 µM in assay [27]; ≥ 50 µM and 25 µM in [28]; 140 µM (≈ 196 µg/mL) in assay [29].

Take `CC[C@H](C)[C@H](N)C(=O)N[C@@H](CCCN=C(N)N)C(=O)N1CCC[C@H]1C(=O)N[C@H](C(=O)N[C@H](C(=O)N[C@@H](CCCN=C(N)N)C(=O)N1CCC[C@H]1C(=O)N[C@H](C(=O)N[C@H](C(=O)N[C@@H](CCCN=C(N)N)C(=O)N1CCC[C@H]1C(=O)N[C@H](C(=O)N[C@H](C(=O)N[C@@H](CCCN=C(N)N)C(=O)N1CCC[C@H]1C(=O)N[C@H](C(=O)N[C@H](C(=O)N[C@@H](CCCN=C(N)N)C(=O)N1CCC[C@H]1C(=O)N[C@H](C(=O)N[C@H](C(=O)N[C@@H](CCCN=C(N)N)C(=O)N1CCC[C@H]1C(=O)N[C@H](C(N)=O)[C@@H](C)CC)[C@@H](C)CC)[C@@H](C)CC)[C@@H](C)CC)[C@@H](C)CC)[C@@H](C)CC)[C@@H](C)CC)[C@@H](C)CC)[C@@H](C)CC)[C@@H](C)CC)[C@@H](C)CC` [IRPIIRPIIRPIIRPIIRPIIRPI]: the MIC was 8 µM (≈ 23.2 µg/mL) in assay [30]; > 64 µM in assay [31]; 4 µM (≈ 11.6 µg/mL) in assay [32]; 16 µM (≈ 46.3 µg/mL) in assay [33]; 2 µM (≈ 5.79 µg/mL) in assay [34]; 2 µM (≈ 5.79 µg/mL) in assay [35]. Besides, the MIC in assay [36] is 8 µM (≈ 23.2 µg/mL); in assay [37] it was 2 µM (≈ 5.79 µg/mL); in [38], ≥ 64 µM; in assay [39] it was 4 µM (≈ 11.6 µg/mL); in [40] it was 1 µM (≈ 2.89 µg/mL); in assay [22] it was 4 µM (≈ 11.6 µg/mL). In addition, the figures for the MIC in assay [41], in [42] and in assay [29] were ≥ 64 µM, 4 µM (≈ 11.6 µg/mL) and 2 µM (≈ 5.79 µg/mL), respectively.

As for `CC(C)C[C@H](NC(=O)[C@@H]1CCCN1C(=O)[C@H](CCCCN)NC(=O)[C@H](CC(C)C)NC(=O)[C@H](CC(C)C)NC(=O)[C@@H]1CCCN1C(=O)[C@H](CCCCN)NC(=O)[C@H](CC(C)C)NC(=O)[C@H](CC(C)C)NC(=O)[C@@H]1CCCN1C(=O)[C@H](CCCCN)NC(=O)[C@H](CC(C)C)NC(=O)[C@H](CC(C)C)NC(=O)[C@@H]1CCCN1C(=O)[C@H](CCCCN)NC(=O)[C@H](CC(C)C)NC(=O)[C@H](CC(C)C)NC(=O)[C@@H]1CCCN1C(=O)[C@H](CCCCN)NC(=O)[C@@H](N)CC(C)C)C(N)=O` [LKPLLKPLLKPLLKPLLKPL], the MIC is > 64 µM in assay [30]; 32 µM (≈ 72.8 µg/mL) in [31]; 16 µM (≈ 36.4 µg/mL) in assay [32]; 32 µM (≈ 72.8 µg/mL) in [33]; 2 µM (≈ 4.55 µg/mL) in assay [34]; 2 µM (≈ 4.55 µg/mL) in assay [35]. Further, the MIC in assay [36] is 16 µM (≈ 36.4 µg/mL); in [37], 4 µM (≈ 9.1 µg/mL); in assay [38], ≥ 64 µM; in assay [39], 4 µM (≈ 9.1 µg/mL); in [40] it was 2 µM (≈ 4.55 µg/mL); in assay [22], 8 µM (≈ 18.2 µg/mL). The MIC was ≥ 32 µM in assay [41], 4 µM (≈ 9.1 µg/mL) in [42] and 2 µM (≈ 4.55 µg/mL) in assay [29].
